According to patent publication US20240173314A1, “TREATMENT OF SICKLE CELL ANAEMIA” (ZYDUS LIFESCIENCES LIMITED, priority 2021, published 2024):

Assays:
ischemia condition = conditions: cited from earlier work
animal model of anaemia = animal model of anaemia (Jain et al., 2019; Joharapurkar et al., 2018); cited from earlier work
isolated RBCs [1] = assay: PHZ-induced reactive oxygen species (DCFDA/DCF) in isolated RBCs; type: cell-based, C57BL/6J; conditions: PHZ 10 μM, RBC suspension
Method: (§1) The RBC was isolated from healthy male C57BL/6J (6-8 weeks old) into a heparinized tube. The RBC pellet was isolated by centrifugation. The RBC pellet was washed three time with glucose supplemented phosphate buffered saline (PBS). The final RBC pellet was diluted 1:4 with glucose supplemented PBS. The RBC suspension was incubated with compound of formula (Ia) at 0.05, 0.5 and 5 μM concentration for 30 min at 37° C. Then the phenylhydrazine (10 μM) was added to all groups and incubated for further 30 min at 37° C. After that 2,7-Dichlorofluorescin-diacetate (DCFDA, 400 μM) was added to the RBC suspension and incubated for 30 min at 37° C. After incubation, the RBC suspension was washed two times with glucose-PBS, and RBC were lysed with 200 μL of ice-cold 0.1% Triton X100 and then incubated for 30 min in darkness at room temperature. After 30 min incubation, the fluorescence of all samples was read (excitation wavelength: 485 nm and emission wavelength: 538 nm). The concentration of 2,7-Dichlorofluorescin (DCF) was calculated from the DCF standard curve. For thiobarbituric acid reactive substances (TBARS) measurement, RBC lysate was used and malondialdehyde was measured using thiobarbituric acid method (Patel V et al., 2018).

isolated RBCs [2] = assay: TBARS (malondialdehyde, thiobarbituric acid method) in RBC lysate after PHZ; type: cell-based, C57BL/6J; conditions: PHZ 10 μM
Method: as §1

[3] = system: PHZ-induced haemolytic anaemia; assay: Phenylhydrazine (PHZ)-induced haemolytic anaemia in mice; type: in vivo, mice (male C57BL/6J); conditions: 15 mg/kg, PO, daily day -1 to day 5; PHZ-treated mice
Method: Male C57BL/6J (6-8 weeks old) were used in the study. Mice were treated with phenylhydrazine (PHZ) on day 0, day 1 and day 3. The PHZ was given by intraperitoneally route at 40 mg/kg on day 0, and 20 mg/kg on day 1 and 3. Vehicle control or compound of formula (Ia) (15 mg/kg, PO) was given daily from day −1 to day 5. At the end of treatment period, whole blood samples were processed for haemoglobin, RBC and haematocrit measurement. The serum samples were analyzed for total iron content. The effect on oxidative and inflammatory markers will be analyzed.

[4] = system: erythroid progenitor cells in bone marrow of anemic rats; assay: Erythroid progenitor cells in bone marrow of cisplatin/turpentine oil anemic rats; type: in vivo; conditions: 15 mg/kg, PO, alternate day, two weeks
Method: The anaemia was induced by cisplatin (5 mg/kg, IP, single dose) and turpentine oil (5 mL/kg, SC, twice a week) administration for four weeks. The compound of formula (Ia) (15 mg/kg, PO, alternate day) treatment was initiated after two weeks of cisplatin/turpentine oil administration. After two weeks of compound of formula (Ia) treatment, animals were euthanized and bone marrow was isolated. Bone marrow smear was prepared and stain with May-Grunwald stain and Giemsa stain. The ratio of erythroid progenitor cell: total cells were expressed as percentage.

[5] = ischemia condition (Joharapurkar et al., 2021)
[6] = oxidative stress (Joharapurkar et al., 2021)

Row | Structure (SMILES) | IL-1β levels (ischemia condition; [5]) | IL-6 levels (ischemia condition; [5]) | malondialdehyde (MDA) (ischemia condition; [6]) | superoxide dismutase (SOD) (ischemia condition; [6]) | HIF stabilization (animal model of anaemia) | erythropoiesis (animal model of anaemia) | decrease of ROS (DCF concentration) compared with vehicle control (isolated RBCs [1]; 0.05 μM) [%] | decrease of ROS (DCF concentration) compared with vehicle control (isolated RBCs [1]; 0.5 μM) [%] | decrease of ROS (DCF concentration) compared with vehicle control (isolated RBCs [1]; 5 μM) [%] | decrease of TBARS levels compared with vehicle control (isolated RBCs [2]; 0.05 μM) [%] | decrease of TBARS levels compared with vehicle control (isolated RBCs [2]; 0.5 μM) [%] | decrease of TBARS levels compared with vehicle control (isolated RBCs [2]; 5 μM) [%] | decrease in serum iron levels [3] [%] | increase in HCT level compared with PHZ control [3] [%] | increase in RBC level compared with PHZ control [3] [%] | increase in hemoglobin level compared with PHZ control [3] [%] | increase in % erythroid progenitor cells compared with vehicle control [4] [fold]
1 | O=C(O)CNC(=O)c1c(O)c2ccccc2n(OCC2CC2)c1=O [Desidustat] | reduced | reduced | decreases | decreases | stabilizes HIF | induces erythropoiesis | – | – | – | – | – | – | – | – | – | – | –
2 | O=C(O)CNC(=O)c1c(O)c2ccccc2n(OCC2CC2)c1=O [compound of formula (Ia)] | – | – | – | – | – | – | 9.6±8.9 | 25.5±3.8 | 35.1±1.7 | 5.5±4.0 | 21.8±4.0 | 27.3±4.0 | 26.0±7.6 | 37.7±5.7 | 44.2±10.4 | 36.4±6.2 | 2.2±0.5
